system: P. gingivalis adherence to S. gordonii; assay: Inhibition of P. gingivalis adherence to S. gordonii in two-species biofilm model; type: cell-based, P. gingivalis ATCC33277; S. gordonii DL-1; conditions: Group III
Source text: To assess the functional activity of the click products, compounds 28-57 (Groups I and II) and 90-124 (Group III) were examined for inhibition of P. gingivalis adherence to S. gordonii using an established biofilm model system as described in the Section 4.2.1 [41]. For each compound tested, an IC50 value for adherence inhibition was approximated after quantifying the ratio of green to red fluorescence and these values are shown in Tables 2, 3 and 4. Compounds were classified as strong (IC50<10 μM), moderate (IC50=10-20 μM) or weak (IC50>20 μM) inhibitors of adherence. Twelve compounds were identified as strong inhibitors and an additional ten compounds were classified as moderate inhibitors. […] Compounds 54, 56, 93, 95, 100, 102, 103, and 115 were also tested to determine if they affect the growth of P. gingivalis or S. gordonii. […] The sulfoxide group does impart asymmetry to the molecule; however, the mixture of enantiomers, assuming the peracid oxidation was racemic, was not separated and bioassayed. The Group III active compounds (95-117) all contain the 1,3,5-trisubstituted-2,4,6-triazine modeled after the Katzenellenbogen rendering of an active motif whereby the key leucine residues which mimicked the VXXLL receptor box lie in a triangular arrangement. While the original iteration of the Katzenellenbogen VXXLL mimics were the hydrophobic 3,5-disubstituted-di-N-alkyamino-triazine motifs, we introduced the hydrophobic 2- and 4-(fluorophenyl)amino groups at positions 3 and 5 of the 2,4,6-triazine (See Compounds 102, 111, 115, 122).
P. gingivalis ATCC33277 was grown in reduced trypticase soy broth (Difco) supplemented with 0.5 percent yeast extract, 1 μg/mL menadione, and 5 μg/mL hemin. Twenty five milliliters of medium were reduced for 24 h under anaerobic conditions by equilibrating in an atmosphere consisting of 10% CO2, 10% H2, and 80% N2. Following equilibration, P. gingivalis was inoculated in the media and grown for 48 h at 37° C. under anaerobic conditions. S. gordonii DL-1 (1) was cultured aerobically without shaking in brain heart infusion (BHI) broth supplemented with 1 percent yeast extract for 16 hours at 37° C. For some compounds that inhibited P. gingivalis adherence to S. gordonii, we determined their affect the planktonic growth of P. gingivalis and S. gordonii. Broth cultures were grown as described above and compared to cultures grown in the absence of the compound. Cell density of each culture was determined by measuring the optical density at 600 nm (O.D.600 nm) after 24 h of growth. The percent growth inhibition/stimulation was calculated using the following equation: [(O.D.600 nm of the control/O.D.600 nm of the culture grown in the presence of compound)−1]×100.
Two species biofilms were formed essentially as previously described. To prepare bacterial cells for biofilm culture, 10 ml of an overnight S. gordonii culture was centrifuged at 5600 rpm for 5 min and the cell pellet was suspended in 1 mL sterile PBS. Subsequently, 20 μL of 5 mg/ml hexidium iodide (Molecular Probes) was added to the cell suspension and incubated for 15 min with gentle shaking at room temperature in the dark. The labeled cells were centrifuged as described above, washed with phosphate buffered saline (10 mM Na2HPO4, […], […], and 2.7 mM KCl, pH 7.2; [PBS]) and the cell pellet was suspended in PBS at a final O.D.600 nm of 0.8. Similarly, 10 mL of a 48 h culture of P. gingivalis was centrifuged at 5600 rpm for 15 min, the cell pellet was suspended in 1 mL PBS and 20 μl of 5(6)-carboxyfluorescein N-hydroxysuccinimide ester (4 mg/ml, Molecular Probes, Inc.) was added. After incubation for 30 min with gentle shaking at room temperature in the dark, the suspension was centrifuged and washed as described above and suspended in PBS at a final O.D.600 nm of 0.4. […]

SMILES	IC50
Fc1ccc(Nc2nc(Nc3ccc(F)cc3)nc(-c3cn(-c4ccccc4-c4nc(-c5ccc(Cl)cc5)c(-c5ccc(Cl)cc5)o4)nn3)n2)cc1 [Compound 116]	> 40 µM
Fc1ccc(Nc2nc(Nc3ccc(F)cc3)nc(-c3cn(-c4ccc(-c5nc(-c6ccco6)c(-c6ccco6)o5)cc4)nn3)n2)cc1 [Compound 124]	7.8 µM
Fc1ccccc1Nc1nc(Nc2ccccc2F)nc(-c2cn(-c3ccc(-c4nc(-c5ccco5)c(-c5ccco5)o4)cc3)nn2)n1 [Compound 109]	> 60 µM
Fc1ccc(Nc2nc(Nc3ccc(F)cc3)nc(-c3cn(-c4ccccc4-c4nc(-c5ccc(F)cc5)c(-c5ccc(F)cc5)o4)nn3)n2)cc1 [Compound 113]	49.2 µM
COc1ccc(-c2nc(-c3cccc(-n4cc(-c5nc(Nc6ccc(F)cc6)nc(Nc6ccc(F)cc6)n5)nn4)c3)oc2-c2ccc(OC)cc2)cc1 [Compound 120]	> 60 µM
Fc1ccccc1Nc1nc(Nc2ccccc2F)nc(-c2cn(-c3ccc(-c4nc(-c5ccccc5)c(-c5ccccc5)o4)cc3)nn2)n1 [Compound 101]	> 60 µM
CCN(CC)c1nc(-c2cn(-c3ccc(-c4nc(-c5ccccc5)c(-c5ccccc5)o4)cc3)nn2)nc(N(CC)CC)n1 [Compound 91]	> 60 µM
CCN(CC)c1nc(-c2cn(-c3ccc(-c4nc(-c5ccc(OC)cc5)c(-c5ccc(OC)cc5)o4)cc3)nn2)nc(N(CC)CC)n1 [Compound 97]	36.6 µM
Fc1ccccc1Nc1nc(Nc2ccccc2F)nc(-c2cn(-c3cccc(-c4nc(-c5ccc(Cl)cc5)c(-c5ccc(Cl)cc5)o4)c3)nn2)n1 [Compound 104]	33.8 µM
CCN(CC)c1nc(-c2cn(-c3ccc(-c4nc(-c5ccco5)c(-c5ccco5)o4)cc3)nn2)nc(N(CC)CC)n1 [Compound 99]	> 60 µM
Fc1ccccc1Nc1nc(Nc2ccccc2F)nc(-c2cn(-c3ccc(-c4nc(-c5ccc(Cl)cc5)c(-c5ccc(Cl)cc5)o4)cc3)nn2)n1 [Compound 105]	> 60 µM
COc1ccc(-c2nc(-c3cccc(-n4cc(-c5nc(Nc6ccccc6F)nc(Nc6ccccc6F)n5)nn4)c3)oc2-c2ccc(OC)cc2)cc1 [Compound 106]	> 60 µM
COc1ccc(-c2nc(-c3ccccc3-n3cc(-c4nc(Nc5ccc(F)cc5)nc(Nc5ccc(F)cc5)n4)nn3)oc2-c2ccc(OC)cc2)cc1 [Compound 119]	> 60 µM
Fc1ccc(Nc2nc(Nc3ccc(F)cc3)nc(-c3cn(-c4cccc(-c5nc(-c6ccc(Cl)cc6)c(-c6ccc(Cl)cc6)o5)c4)nn3)n2)cc1 [Compound 117]	27.8 µM
CCN(CC)c1nc(-c2cn(-c3cccc(-c4nc(-c5ccc(Cl)cc5)c(-c5ccc(Cl)cc5)o4)c3)nn2)nc(N(CC)CC)n1 [Compound 94]	16 µM
CCN(CC)c1nc(-c2cn(-c3cccc(-c4nc(-c5ccccc5)c(-c5ccccc5)o4)c3)nn2)nc(N(CC)CC)n1 [Compound 90]	20.7 µM
Fc1ccccc1Nc1nc(Nc2ccccc2F)nc(-c2cn(-c3cccc(-c4nc(-c5ccco5)c(-c5ccco5)o4)c3)nn2)n1 [Compound 108]	> 60 µM
CCN(CC)c1nc(-c2cn(-c3cccc(-c4nc(-c5ccc(OC)cc5)c(-c5ccc(OC)cc5)o4)c3)nn2)nc(N(CC)CC)n1 [Compound 96]	> 60 µM
CCN(CC)c1nc(-c2cn(-c3cccc(-c4nc(-c5ccc(F)cc5)c(-c5ccc(F)cc5)o4)c3)nn2)nc(N(CC)CC)n1 [Compound 92]	> 60 µM
Fc1ccc(Nc2nc(Nc3ccc(F)cc3)nc(-c3cn(-c4cccc(-c5nc(-c6ccc(F)cc6)c(-c6ccc(F)cc6)o5)c4)nn3)n2)cc1 [Compound 114]	> 60 µM
Fc1ccc(Nc2nc(Nc3ccc(F)cc3)nc(-c3cn(-c4ccc(-c5nc(-c6ccc(Cl)cc6)c(-c6ccc(Cl)cc6)o5)cc4)nn3)n2)cc1 [Compound 118]	13.3 µM
Fc1ccc(Nc2nc(Nc3ccc(F)cc3)nc(-c3cn(-c4ccccc4-c4nc(-c5ccccc5)c(-c5ccccc5)o4)nn3)n2)cc1 [Compound 110]	> 60 µM
CCN(CC)c1nc(-c2cn(-c3cccc(-c4nc(-c5ccco5)c(-c5ccco5)o4)c3)nn2)nc(N(CC)CC)n1 [Compound 98]	> 60 µM

same assay, conditions: Table 2, Group I triazoles; concentration reducing ratio of green (P. gingivalis) to red (S. gordonii) fluorescence by 50%; approximated

SMILES	IC50
[O-][S+](Cc1nc(-c2ccccc2)c(-c2ccccc2)o1)c1ccc(-n2cc(-c3cc(C(F)(F)F)cc(C(F)(F)F)c3)nn2)cc1 (centres unmarked) [Compound 36]	> 60 µM
O=S(=O)(Cc1nc(-c2ccccc2)c(-c2ccccc2)o1)c1ccc(-n2cc(-c3ccc(F)cc3)nn2)cc1 [Compound 38]	15.7 µM
CCCCCc1ccc(-c2cn(-c3ccc([S+]([O-])Cc4nc(-c5ccccc5)c(-c5ccccc5)o4)cc3)nn2)cc1 (centres unmarked) [Compound 34]	> 60 µM
[O-][S+](Cc1nc(-c2ccccc2)c(-c2ccccc2)o1)c1ccc(-n2cc(-c3ccccc3C(F)(F)F)nn2)cc1 (centres unmarked) [Compound 32]	> 60 µM
COc1ccc2cc(-c3cn(-c4ccc(S(=O)(=O)Cc5nc(-c6ccccc6)c(-c6ccccc6)o5)cc4)nn3)ccc2c1 [Compound 42]	> 60 µM
O=S(=O)(Cc1nc(-c2ccccc2)c(-c2ccccc2)o1)c1ccc(-n2cc(-c3ccccc3C(F)(F)F)nn2)cc1 [Compound 41]	> 60 µM
O=S(=O)(Cc1nc(-c2ccccc2)c(-c2ccccc2)o1)c1ccc(-n2cc(-c3cccc(F)c3)nn2)cc1 [Compound 39]	33.6 µM
COc1ccc2cc(-c3cn(-c4ccc([S+]([O-])Cc5nc(-c6ccccc6)c(-c6ccccc6)o5)cc4)nn3)ccc2c1 (centres unmarked) [Compound 33]	> 60 µM
CCCCCc1ccc(-c2cn(-c3ccc(S(=O)(=O)Cc4nc(-c5ccccc5)c(-c5ccccc5)o4)cc3)nn2)cc1 [Compound 43]	36.6 µM
COc1ccccc1-c1cn(-c2ccc([S+]([O-])Cc3nc(-c4ccccc4)c(-c4ccccc4)o3)cc2)nn1 (centres unmarked) [Compound 31]	> 60 µM
[O-][S+](Cc1nc(-c2ccccc2)c(-c2ccccc2)o1)c1ccc(-n2cc(-c3ccc(F)cc3)nn2)cc1 (centres unmarked) [Compound 29]	> 60 µM
[O-][S+](Cc1nc(-c2ccccc2)c(-c2ccccc2)o1)c1ccc(-n2cc(-c3cccc(F)c3)nn2)cc1 (centres unmarked) [Compound 30]	47.3 µM
[O-][S+](Cc1nc(-c2ccccc2)c(-c2ccccc2)o1)c1ccc(-n2cc(-c3ccc(Oc4ccccc4)cc3)nn2)cc1 (centres unmarked) [Compound 35]	> 60 µM
[O-][S+](Cc1nc(-c2ccccc2)c(-c2ccccc2)o1)c1ccc(-n2cc(-c3cccnc3)nn2)cc1 (racemic) [Compound 28, 4,5-Diphenyl-2-(((4-(4-(pyridin-3-yl)-1H-1,2,3-triazol-1-yl)phenyl)sulfinyl)methyl) oxazole]	> 60 µM

same assay, conditions: Table 3, Group II click products; concentration reducing green to red fluorescence ratio by 50%; approximated

SMILES	IC50
[O-][S+](Cc1nc(-c2ccc(Cl)cc2)c(-c2ccc(Cl)cc2)o1)c1ccc(-n2cc(-c3cccc(F)c3)nn2)cc1 (centres unmarked) [Compound 49]	15.1 µM
[O-][S+](Cc1nc(-c2ccc(Cl)cc2)c(-c2ccc(Cl)cc2)o1)c1ccc(-n2cc(-c3ccc(F)cc3)nn2)cc1 (centres unmarked) [Compound 50]	39.8 µM
[O-][S+](Cc1nc(-c2ccc(F)cc2)c(-c2ccc(F)cc2)o1)c1ccc(-n2cc(-c3ccc(F)cc3)nn2)cc1 (centres unmarked) [Compound 47]	35.9 µM
O=S(=O)(Cc1nc(-c2ccc(Cl)cc2)c(-c2ccc(Cl)cc2)o1)c1ccc(-n2cc(-c3cccc(F)c3)nn2)cc1 [Compound 55]	18.2 µM
COc1ccccc1-c1cn(-c2ccc([S+]([O-])Cc3nc(-c4ccc(Cl)cc4)c(-c4ccc(Cl)cc4)o3)cc2)nn1 (centres unmarked) [Compound 51]	10.2 µM
[O-][S+](Cc1nc(-c2ccc(F)cc2)c(-c2ccc(F)cc2)o1)c1ccc(-n2cc(-c3cccc(F)c3)nn2)cc1 (centres unmarked) [Compound 46]	5.3 µM

same assay, conditions: read-out: IC50 for inhibition of adherence of P. gingivalis to S. gordonii

SMILES	IC50
Fc1ccc(Nc2nc(Nc3ccc(F)cc3)nc(-c3cn(-c4cccc(-c5nc(-c6ccc(Cl)cc6)c(-c6ccc(Cl)cc6)o5)c4)nn3)n2)cc1 [Compound 117]	2.3 to 5.3 µM

— US12215104B2, “Anti-biofilm compounds” (UNIVERSITY OF LOUISVILLE RESEARCH FOUNDATION, INC., priority 2018, dated 2025)
